# Test system: osteoclast differentiation
# Experiment: Inhibitory effects on osteoclast differentiation (co-culture of bone marrow cells with osteoblast, TRAP staining)
# Format: cell-based, mice
# Settings: Mus musculus, Osteoclast, 168 h; 1 m; co-culture of bone marrow cells and osteoblast, 7 days, TRAP-positive osteoclasts versus controls; read-out: % inhibitory activity on osteoclastogenesis
# Method in brief: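 Bone marrow cells from 6–8-week male ddY mice co-cultured with neonatal ICR mouse calvarial osteoblasts in α-MEM/FBS with dexamethasone (10^−7M) and vitamin D3 (10^−8M) for 7 days, compound and medium renewed every 2–3 days. TRAP-positive cells with ≥3 nuclei counted; inhibition given as percent of control.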
row,Structure (SMILES),inhibition at 1 µM [%]
1,"CN1CCN(c2nc(-c3ccc(OCCCCCOc4ccc(C(=N)NO)cc4)cc3)c(CC3CCCC3)s2)CC1 [Example 170, N-hydroxy-4-(5-(4-[5-cyclopentylmethyl-2-(4-methylpiperazino)-1,3-thiazol-4-yl]phenoxy)-pentoxy)-benzamidine]",93.9
2,"C=Cc1sc(N2CCOCC2)nc1-c1ccc(OCCCCCOc2ccc(C(=N)NO)cc2)cc1 [Example 171, N-hydroxy-4-(5-[4-(5-vinyl-2-morpholin-4-yl-1,3-thiazol-4-yl)phenoxy]pentoxy)-benzamidine]",96.2
3,"N=C(NO)c1ccc(OCCCCCOc2ccc(-c3nc(N4CCOCC4)sc3C3CCCC3)cc2)cc1 [Example 172, N-hydroxy-4-(5-[4-(5-cyclopentyl-2-morpholin-4-yl-1,3-thiazol-4-yl)phenoxy]pentoxy)-benzamidine]",87.8
4,"CC(C)Cc1sc(N2CCOCC2)nc1-c1ccc(OCCCCCOc2ccc(C(=N)NO)cc2)cc1 [Example 173, N-hydroxy-4-[5-[4-(5-isobutyl-2-morpholin-4-yl-1,3-thiazol-4-yl)phenoxy]pentoxy)-benzamidine]",9
5,"N=C(NO)c1ccc(OCCCCCOc2ccc(-c3csc(N4CCOCC4)n3)cc2)cc1 [Example 175, N-hydroxy-4-(5-[4-(2-morpholin-4-yl-1,3-thiazol-4-yl)phenoxy]pentoxy)-benzamidine]",61.9
6,"Cc1nc(-c2ccc(OCCOCCOc3ccc(C(=N)NO)cc3)cc2)c(C(C)C)s1 [Example 178, N-hydroxy-4-(2-[2-(4-(5-isopropyl-2-methyl-1,3-thiazol-4-yl)phenoxy)-ethoxy]-ethoxy)-benzamidine]",36.8
7,"Cc1nc(-c2ccc(OCCC(C)(O)CCOc3ccc(C(=N)NO)cc3)cc2)c(C(C)C)s1 (stereo not shown) [Example 179, N-hydroxy-4-(3-hydroxy-5-[4-(5-isopropyl-2-methyl-1,3-thiazol-4-yl)-phenoxy]-3-methyl-pentoxy)-benzamidine]",100
8,"Cc1nc(-c2ccc(OCC(C)NCCOc3ccc(C(=N)NO)cc3)cc2)c(C(C)C)s1 (stereo not shown) [Example 180, N-hydroxy-4-(2-[2-(4-(5-isopropyl-2-methyl-1,3-thiazol-4-yl)-phenoxy)-1-methyl-ethylamino]-ethoxy)-benzamidine]",32.6
9,"Cc1nc(-c2ccc(OCCCCC(=O)Nc3ccc(C(=N)NO)cc3)cc2)c(C(C)C)s1 [Example 182, N-hydroxy-4-(5-[4-(5-isopropyl-2-methyl-1,3-thiazol-4-yl)-phenoxy]-pentanoyl-amino)-benzamidine]",81.1
10,"Cc1nc(-c2ccc(OCCCCCN(C)c3ccc(C(=N)NO)cc3)cc2)c(C(C)C)s1 [Example 183, N-hydroxy-4-(5-[4-(5-isopropyl-2-methyl-1,3-thiazol-4-yl)-phenoxy]-pentyl-methyl-amino)-benzamidine]",65.6
11,"Cc1nc(-c2ccc(OCCNCCOc3ccc(C(=N)NO)cc3)cc2)c(C(C)C)s1 [Example 186, N-hydroxy-4-(2-[2-(4-(5-isopropyl-2-methyl-1,3-thiazol-4-yl)phenoxy)-ethylamino]-ethoxy)-benzamidine]",71
12,"Cc1nc(-c2ccc(OCCCCCOc3ccc(C(=N)NO)c(NC4CCCCC4)c3)cc2)c(C(C)C)s1 [Example 190, N-hydroxy-2-cyclohexylamino-4-(5-[4-(5-isopropyl-2-methyl-1,3-thiazol-4-yl)-phenoxy]-pentoxy)-benzamidine]",27.3
13,"Cc1nc(-c2ccc(OCCCCCOc3ccc(C(=N)NO)cc3)cc2F)c(C(C)C)s1 [Example 191, N-hydroxy-4-(5-[3-fluoro-4-(5-isopropyl-2-methyl-1,3-thiazol-4-yl)-phenoxy]-pentoxy)-benzamidine]",8.8
14,"Cc1nc(-c2ccc(OCCCCCOc3ccc(C(=N)NO)c(F)c3)cc2F)c(C(C)C)s1 [Example 192, N-hydroxy-2-fluoro-4-(5-[3-fluoro-4-(5-isopropyl-2-methyl-1,3-thiazol-4-yl)-phenoxy]-pentoxy)-benzamidine]",70.5
15,"Cc1nc(-c2ccc(OCCCOc3ccc(C(=N)NO)cc3)cc2)c(C(C)C)s1 [Example 193, N-hydroxy-4-(3-[4-(5-isopropyl-2-methyl-1,3-thiazol-4-yl)phenoxy]propoxy)-benzamidine]",54.1
16,"Cc1nc(-c2ccc(OCCCCOc3ccc(C(=N)NO)cc3)cc2)c(C(C)C)s1 [Example 194, N-hydroxy-4-(4-[4-(5-isopropyl-2-methyl-1,3-thiazol-4-yl)phenoxy]butoxy)-benzamidine]",19.8
17,"Cc1nc(-c2ccc(OCCCCCNc3cccc(C(=N)NO)c3)cc2)c(C(C)C)s1 [Example 195, N-hydroxy-3-(5-[4-(5-isopropyl-2-methyl-thiazol-4-yl)-phenoxy]-pentylamino)-benzamidine]",42.3
18,"CCc1sc(C2CCCCC2)nc1-c1ccc(OCCCCOc2ccc(C(=N)NO)cc2)cc1 [Example 196, N-hydroxy-4-(4-[4-(2-cyclohexyl-5-ethyl-thiazol-4-yl)-phenoxy]-butoxy)-benzamidine]",82
19,"CCc1sc(N(C)CCO)nc1-c1ccc(OCCCCOc2ccc(C(=N)NO)cc2)cc1 [Example 198, N-hydroxy-4-(4-[4-(5-ethyl-2-[(2-hydroxyethyl)-methyl-amino]-thiazol-4-yl)phenoxy]butoxy)-benzamidine]",36.9
20,"CCc1sc(N(C)Cc2cccnc2)nc1-c1ccc(OCCCOc2ccc(C(=N)NO)cc2)cc1 [Example 199, N-hydroxy-4-(3-[4-(5-ethyl-2-[methyl-(pyridin-3-yl-methyl)amino]-thiazol-4-yl)phenoxy]propoxy)-benzamidine]",82.9
21,"CCc1sc(N(C)Cc2cccnc2)nc1-c1ccc(OCCCCOc2ccc(C(=N)NO)cc2)cc1 [Example 200, N-hydroxy-4-(4-[4-(5-ethyl-2-[methyl-(pyridin-3-yl-methyl)amino]-thiazol-4-yl)phenoxy]butoxy)-benzamidine]",38.7
22,"CC(C)c1nc(-c2ccc(OCc3ccc(COc4ccc(C(=N)NO)cc4)cc3)cc2)c(CC2CCCC2)s1 [Example 201, N-hydroxy-4-(4-[4-(5-cyclopentylmethyl-2-isopropyl-thiazol-4-yl)-phenoxymethyl]-benzyloxy)-benzamidine]",85.6
23,"CCCCc1sc(C(C)C)nc1-c1ccc(OCc2ccc(COc3ccc(C(=N)NO)cc3)cc2)cc1 [Example 202, N-hydroxy-4-(4-[4-(5-butyl-2-isopropyl-thiazol-4-yl)-phenoxymethyl]-benzyloxy)-benzamidine]",85.6
24,"Cc1nc(-c2ccc(OCc3cccc(COc4ccc(C(=N)NO)cc4)c3)cc2)c(C(C)C)s1 [Example 209, N-hydroxy-4-(3-[4-(5-isopropyl-2-methyl-thiazol-4-yl)-phenoxymethyl]-benzyloxy)-benzamidine]",14.3
25,"N=C(NO)c1ccc(OCc2ccc(COc3ccc(-c4nc(C5CCCCC5)sc4CC4CCCC4)cc3)cc2)cc1 [Example 210, N-hydroxy-4-(4-[4-(5-cyclopentylmethyl-2-cyclohexyl-thiazol-4-yl)-phenoxymethyl]-benzyloxy)-benzamidine]",68.8
26,"Cc1nc(-c2ccc(OCCCCCCOc3ccc(C(=N)NO)cc3)cc2)c(C(C)C)s1 [Example 211, N-hydroxy-4-(6-[4-(5-isopropyl-2-methyl-thiazol-4-yl)phenoxy]-hexyloxy)-benzamidine]",44
27,"CCCOc1cc(OCCCCCOc2ccc(C(=N)NO)cc2)c(CC)cc1-c1csc(C)n1 [Example 213, N-hydroxy-4-(5-[2-ethyl-4-(2-methyl-thiazol-4-yl)-5-propoxy-phenoxy]-pentyloxy)-benzamidine]",91.8

# Same assay, conditions: Mus musculus, Osteoclast, 168 h; 1 μm; co-culture of bone marrow cells and osteoblast, 7 days, TRAP-positive osteoclasts versus controls; read-out: % inhibitory activity on osteoclastogenesis
row,Structure (SMILES),inhibition at 1 µM [%]
1,"N=C(NO)c1ccc(OCCCCCOc2ccc(-c3csc(C4CCCCC4)n3)cc2)cc1 [Example 8, N-hydroxy-4-(5-[4-(2-cyclohexyl-1,3-thiazol-4-yl)phenoxy]pentoxy)-benzamidine]",88.3

# Same assay, conditions: co-culture of bone marrow cells and osteoblast, 7 days, TRAP-positive osteoclasts versus controls
row,Structure (SMILES),% inhibitory activity on osteoclastogenesis [%]
1,"Cc1sc(N2CCCCC2)nc1-c1ccc(OCCCCCOc2ccc(C(=N)NO)cc2)cc1 [Example 164, N-hydroxy-4-(5-[4-(5-methyl-2-piperdino-1,3-thiazol-4-yl)phenoxy]pentoxy)-benzamidine]",67.4
2,"COc1cc(C(=N)NO)ccc1OCCCCCOc1ccc(-c2nc(C)sc2C(C)C)cc1 [Example 189, N-hydroxy-4-(5-[4-(5-isopropyl-2-methyl-1,3-thiazol-4-yl)-phenoxy]-pentoxy-3-methoxy)-benzamidine]",38.7
3,"N=C(NO)c1ccc(OCc2ccc(COc3ccc(-c4nc(N)sc4CC4CCCC4)cc3)cc2)cc1 [Example 203, N-hydroxy-4-(4-[4-(5-cyclopentylnnethyl-2-amino-thiazol-4-yl)-phenoxymethyl]-benzyloxy)-benzamidine]",68.8
4,"Cc1nc(-c2ccc(OCCCCOc3ccc(C(=N)NO)c(F)c3)cc2)c(C(C)C)s1 [Example 207, N-hydroxy-2-fluoro-4-(5-[4-(5-isopropyl-2-methyl-thiazol-4-yl)-phenoxy]-butoxy)-benzamidine]",14.4

# Test system: cells
# Experiment: Cytotoxicity test (MTT)
# Format: cell-based
# Settings: MC3T3-E1 cells, 10^−6M, 72 hrs, compared with the control group
# Description: Cytotoxic effect of benzamidine derivatives was evaluated by the experiment described below.
# The test substance was diluted in appropriate solvent at 10^−2M concentration. […] Cells to be used in cytotoxitic test were plated on a 96-well microplate in a dose of 1×10^4 cell/100 μL per well and cultured for 72 hrs. 25 μL of MTT [3-(4,5-dimethyl-2-thiazolyl)-2,5-diphenyl-2H-tetrazolium bromide] dissolved in PBS at 2 mg/mL were added before 4 hrs of the end of culture. After reaction, the plates were centrifuged, medium was decanted and 100 μL of DMSO was added to dissolve formazan. Lastly, the absorbance of developed plates was measured at 540 nm.
row,Structure (SMILES),Survival rates of the cells [%]
1,"N=C(NO)c1ccc(OCCCCCOc2ccc(-c3csc(C4CCCCC4)n3)cc2)cc1 [Example 8, N-hydroxy-4-(5-[4-(2-cyclohexyl-1,3-thiazol-4-yl)phenoxy]pentoxy)-benzamidine]",76.9

# Same assay, conditions: ST2 cells, 10^−6M, 72 hrs, compared with the control group
row,Structure (SMILES),Survival rates of the cells [%]
1,"N=C(NO)c1ccc(OCCCCCOc2ccc(-c3csc(C4CCCCC4)n3)cc2)cc1 [Example 8, N-hydroxy-4-(5-[4-(2-cyclohexyl-1,3-thiazol-4-yl)phenoxy]pentoxy)-benzamidine]",46.2
